Where two headings read alike, the source gives them in different places.
Tests used:
Assay in all cases: Kinase selectivity, scanMAX Kinase assay panel (DiscoverX), % control at 1 uM
Format in all cases: binding
[1] = target: T1, scanMAX Kinase assay panel (Homo sapiens, UniProt Q8NEV4); details: MYO3A; 1 uM; read-out: Percent Control (%)
T1 construct: purchased DiscoverX
Method in brief: (§1)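 Each kinase was first exposed to the test compound at 1 uM in DMSO. Signal was then normalised to positive and negative controls to give % control. Finally, any enzyme showing <35% control was judged inhibited.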

[2] = target: T2, scanMAX Kinase assay panel (Homo sapiens, UniProt Q8IVH8); details: MAP4K3; 1 uM; read-out: Percent Control (%)
T2 construct: purchased DiscoverX
T2 sequence (Q8IVH8 1-894): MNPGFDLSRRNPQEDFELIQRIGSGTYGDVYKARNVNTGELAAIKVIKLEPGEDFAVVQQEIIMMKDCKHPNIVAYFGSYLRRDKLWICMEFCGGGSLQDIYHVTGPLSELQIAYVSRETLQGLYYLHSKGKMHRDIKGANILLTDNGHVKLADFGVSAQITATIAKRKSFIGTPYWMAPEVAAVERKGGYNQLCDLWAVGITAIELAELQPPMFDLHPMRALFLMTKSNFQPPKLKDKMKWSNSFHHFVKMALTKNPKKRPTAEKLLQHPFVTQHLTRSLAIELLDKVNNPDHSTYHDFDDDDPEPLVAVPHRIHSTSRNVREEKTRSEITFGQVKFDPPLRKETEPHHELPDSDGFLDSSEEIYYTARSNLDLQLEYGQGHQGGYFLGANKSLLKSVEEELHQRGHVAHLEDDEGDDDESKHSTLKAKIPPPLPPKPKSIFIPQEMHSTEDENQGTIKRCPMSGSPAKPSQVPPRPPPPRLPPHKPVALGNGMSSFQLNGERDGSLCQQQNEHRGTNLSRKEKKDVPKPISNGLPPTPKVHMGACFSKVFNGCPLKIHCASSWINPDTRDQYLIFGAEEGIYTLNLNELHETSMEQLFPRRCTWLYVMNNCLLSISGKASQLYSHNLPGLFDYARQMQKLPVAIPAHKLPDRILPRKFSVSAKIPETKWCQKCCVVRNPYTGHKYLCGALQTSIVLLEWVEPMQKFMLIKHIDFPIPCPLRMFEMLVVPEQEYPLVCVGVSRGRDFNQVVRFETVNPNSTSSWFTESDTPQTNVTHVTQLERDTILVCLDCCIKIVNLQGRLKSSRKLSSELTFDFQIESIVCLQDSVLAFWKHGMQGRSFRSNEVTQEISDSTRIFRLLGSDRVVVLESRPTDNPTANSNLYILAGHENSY
Method in brief: as §1

[3] = target: T3, scanMAX Kinase assay panel (Homo sapiens, UniProt Q9NQU5); details: PAK6; 1 uM; read-out: Percent Control (%)
T3 construct: purchased DiscoverX
T3 sequence (Q9NQU5 whole entry): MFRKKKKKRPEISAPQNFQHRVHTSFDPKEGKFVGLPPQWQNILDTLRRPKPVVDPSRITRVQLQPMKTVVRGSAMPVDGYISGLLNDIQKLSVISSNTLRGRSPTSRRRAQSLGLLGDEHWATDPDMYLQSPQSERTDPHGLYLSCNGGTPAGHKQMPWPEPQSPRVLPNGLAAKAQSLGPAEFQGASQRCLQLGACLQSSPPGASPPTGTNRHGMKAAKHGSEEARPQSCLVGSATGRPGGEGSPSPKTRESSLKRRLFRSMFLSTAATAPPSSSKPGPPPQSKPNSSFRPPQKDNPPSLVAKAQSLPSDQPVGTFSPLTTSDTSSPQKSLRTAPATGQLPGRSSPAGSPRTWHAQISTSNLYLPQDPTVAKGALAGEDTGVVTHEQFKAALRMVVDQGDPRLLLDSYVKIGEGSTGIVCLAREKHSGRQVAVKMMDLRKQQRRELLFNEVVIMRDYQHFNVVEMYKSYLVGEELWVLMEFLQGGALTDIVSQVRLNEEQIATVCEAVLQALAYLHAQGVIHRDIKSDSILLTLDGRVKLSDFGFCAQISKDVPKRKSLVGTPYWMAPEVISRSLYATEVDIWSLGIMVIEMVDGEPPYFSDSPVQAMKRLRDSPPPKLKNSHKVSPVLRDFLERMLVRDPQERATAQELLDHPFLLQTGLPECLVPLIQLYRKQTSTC
Method in brief: as §1

[4] = target: T4, scanMAX Kinase assay panel (Homo sapiens, UniProt Q9Y463); details: DYRK1B; 1 uM; read-out: Percent Control (%)
T4 construct: purchased DiscoverX
T4 sequence (Q9Y463 whole entry): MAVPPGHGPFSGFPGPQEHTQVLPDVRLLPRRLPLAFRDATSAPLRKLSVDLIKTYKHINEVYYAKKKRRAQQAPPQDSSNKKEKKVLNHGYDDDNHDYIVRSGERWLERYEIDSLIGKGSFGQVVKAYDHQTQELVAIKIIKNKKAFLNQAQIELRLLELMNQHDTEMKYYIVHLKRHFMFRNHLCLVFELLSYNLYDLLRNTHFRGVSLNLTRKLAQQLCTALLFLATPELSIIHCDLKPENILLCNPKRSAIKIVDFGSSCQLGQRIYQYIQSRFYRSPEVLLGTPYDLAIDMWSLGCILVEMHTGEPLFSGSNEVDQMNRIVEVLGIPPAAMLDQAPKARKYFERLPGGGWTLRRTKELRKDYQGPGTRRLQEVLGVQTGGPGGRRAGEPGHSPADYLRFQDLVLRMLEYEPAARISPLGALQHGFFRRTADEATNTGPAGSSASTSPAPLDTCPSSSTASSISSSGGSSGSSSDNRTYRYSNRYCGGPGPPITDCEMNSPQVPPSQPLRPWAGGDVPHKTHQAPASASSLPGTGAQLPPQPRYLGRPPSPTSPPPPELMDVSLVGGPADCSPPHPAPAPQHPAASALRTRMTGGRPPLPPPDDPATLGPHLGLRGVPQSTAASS
Method in brief: as §1

[5] = target: T5, scanMAX Kinase assay panel (Homo sapiens, UniProt P23458); details: 1 uM, read-out: Percent Control (%)
T5 construct: purchased DiscoverX
Method in brief: as §1

[6] = target: T6, scanMAX Kinase assay panel (Homo sapiens, UniProt Q08881); details: ITK; 1 uM; read-out: Percent Control (%)
T6 construct: purchased DiscoverX
T6 sequence (Q08881 1-620): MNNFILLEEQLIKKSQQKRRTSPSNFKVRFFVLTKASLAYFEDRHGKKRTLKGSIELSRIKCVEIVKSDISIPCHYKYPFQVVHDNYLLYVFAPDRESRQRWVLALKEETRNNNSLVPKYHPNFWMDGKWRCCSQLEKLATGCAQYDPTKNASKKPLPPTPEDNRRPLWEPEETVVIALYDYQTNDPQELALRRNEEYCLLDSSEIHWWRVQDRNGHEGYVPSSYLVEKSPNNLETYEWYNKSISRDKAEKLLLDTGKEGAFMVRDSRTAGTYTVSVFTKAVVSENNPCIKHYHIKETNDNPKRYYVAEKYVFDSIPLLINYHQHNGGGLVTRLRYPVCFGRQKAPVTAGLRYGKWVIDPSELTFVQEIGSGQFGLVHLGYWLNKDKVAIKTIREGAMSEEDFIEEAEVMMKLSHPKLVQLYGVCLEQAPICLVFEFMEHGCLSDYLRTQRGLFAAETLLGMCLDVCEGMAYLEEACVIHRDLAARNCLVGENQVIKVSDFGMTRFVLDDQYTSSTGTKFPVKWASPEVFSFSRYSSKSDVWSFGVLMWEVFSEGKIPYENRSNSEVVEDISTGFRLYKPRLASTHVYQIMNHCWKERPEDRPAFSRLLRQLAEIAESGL
Method in brief: as §1

[7] = target: T7, scanMAX Kinase assay panel (Homo sapiens, UniProt P48729); details: CSNK1A1; 1 uM; read-out: Percent Control (%)
T7 construct: purchased DiscoverX
T7 sequence (P48729 whole entry): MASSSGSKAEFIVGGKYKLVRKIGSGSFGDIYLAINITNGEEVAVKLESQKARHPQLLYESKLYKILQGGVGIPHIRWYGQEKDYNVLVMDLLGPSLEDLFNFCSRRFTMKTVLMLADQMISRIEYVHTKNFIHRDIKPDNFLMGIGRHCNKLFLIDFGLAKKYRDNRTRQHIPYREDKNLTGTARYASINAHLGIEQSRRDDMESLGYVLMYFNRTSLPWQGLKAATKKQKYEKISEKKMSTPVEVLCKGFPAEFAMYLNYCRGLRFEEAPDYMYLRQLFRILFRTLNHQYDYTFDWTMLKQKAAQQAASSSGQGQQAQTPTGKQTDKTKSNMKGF
Method in brief: as §1

[8] = target: T8, scanMAX Kinase assay panel (Homo sapiens, UniProt Q15303); details: ERBB4; 1 uM; read-out: Percent Control (%)
T8 construct: purchased DiscoverX
Method in brief: as §1

[9] = target: T9, scanMAX Kinase assay panel (Homo sapiens, UniProt Q7KZI7); details: MARK2; 1 uM; read-out: Percent Control (%)
T9 construct: purchased DiscoverX
T9 sequence (Q7KZI7 whole entry): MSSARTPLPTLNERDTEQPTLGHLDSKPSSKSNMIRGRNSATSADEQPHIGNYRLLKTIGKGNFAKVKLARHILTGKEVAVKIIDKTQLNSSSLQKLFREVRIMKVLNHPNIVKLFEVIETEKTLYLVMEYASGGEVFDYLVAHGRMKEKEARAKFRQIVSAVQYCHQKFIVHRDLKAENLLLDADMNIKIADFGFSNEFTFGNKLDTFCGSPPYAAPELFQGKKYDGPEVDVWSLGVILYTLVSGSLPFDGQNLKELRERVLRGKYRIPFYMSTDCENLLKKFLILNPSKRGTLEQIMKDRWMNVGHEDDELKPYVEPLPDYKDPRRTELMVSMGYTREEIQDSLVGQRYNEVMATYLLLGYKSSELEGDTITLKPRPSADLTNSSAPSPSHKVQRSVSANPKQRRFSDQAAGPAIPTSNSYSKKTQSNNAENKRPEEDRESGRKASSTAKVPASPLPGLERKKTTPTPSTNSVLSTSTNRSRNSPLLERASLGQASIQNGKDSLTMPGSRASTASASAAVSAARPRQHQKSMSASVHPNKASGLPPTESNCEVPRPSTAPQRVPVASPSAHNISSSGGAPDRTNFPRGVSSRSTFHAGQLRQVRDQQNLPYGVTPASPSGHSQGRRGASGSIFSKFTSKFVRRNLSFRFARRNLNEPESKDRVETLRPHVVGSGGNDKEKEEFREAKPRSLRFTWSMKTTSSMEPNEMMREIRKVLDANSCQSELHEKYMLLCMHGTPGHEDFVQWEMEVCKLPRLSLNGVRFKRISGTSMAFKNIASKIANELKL
Method in brief: as §1

T1 sequence (Q8NEV4 whole entry): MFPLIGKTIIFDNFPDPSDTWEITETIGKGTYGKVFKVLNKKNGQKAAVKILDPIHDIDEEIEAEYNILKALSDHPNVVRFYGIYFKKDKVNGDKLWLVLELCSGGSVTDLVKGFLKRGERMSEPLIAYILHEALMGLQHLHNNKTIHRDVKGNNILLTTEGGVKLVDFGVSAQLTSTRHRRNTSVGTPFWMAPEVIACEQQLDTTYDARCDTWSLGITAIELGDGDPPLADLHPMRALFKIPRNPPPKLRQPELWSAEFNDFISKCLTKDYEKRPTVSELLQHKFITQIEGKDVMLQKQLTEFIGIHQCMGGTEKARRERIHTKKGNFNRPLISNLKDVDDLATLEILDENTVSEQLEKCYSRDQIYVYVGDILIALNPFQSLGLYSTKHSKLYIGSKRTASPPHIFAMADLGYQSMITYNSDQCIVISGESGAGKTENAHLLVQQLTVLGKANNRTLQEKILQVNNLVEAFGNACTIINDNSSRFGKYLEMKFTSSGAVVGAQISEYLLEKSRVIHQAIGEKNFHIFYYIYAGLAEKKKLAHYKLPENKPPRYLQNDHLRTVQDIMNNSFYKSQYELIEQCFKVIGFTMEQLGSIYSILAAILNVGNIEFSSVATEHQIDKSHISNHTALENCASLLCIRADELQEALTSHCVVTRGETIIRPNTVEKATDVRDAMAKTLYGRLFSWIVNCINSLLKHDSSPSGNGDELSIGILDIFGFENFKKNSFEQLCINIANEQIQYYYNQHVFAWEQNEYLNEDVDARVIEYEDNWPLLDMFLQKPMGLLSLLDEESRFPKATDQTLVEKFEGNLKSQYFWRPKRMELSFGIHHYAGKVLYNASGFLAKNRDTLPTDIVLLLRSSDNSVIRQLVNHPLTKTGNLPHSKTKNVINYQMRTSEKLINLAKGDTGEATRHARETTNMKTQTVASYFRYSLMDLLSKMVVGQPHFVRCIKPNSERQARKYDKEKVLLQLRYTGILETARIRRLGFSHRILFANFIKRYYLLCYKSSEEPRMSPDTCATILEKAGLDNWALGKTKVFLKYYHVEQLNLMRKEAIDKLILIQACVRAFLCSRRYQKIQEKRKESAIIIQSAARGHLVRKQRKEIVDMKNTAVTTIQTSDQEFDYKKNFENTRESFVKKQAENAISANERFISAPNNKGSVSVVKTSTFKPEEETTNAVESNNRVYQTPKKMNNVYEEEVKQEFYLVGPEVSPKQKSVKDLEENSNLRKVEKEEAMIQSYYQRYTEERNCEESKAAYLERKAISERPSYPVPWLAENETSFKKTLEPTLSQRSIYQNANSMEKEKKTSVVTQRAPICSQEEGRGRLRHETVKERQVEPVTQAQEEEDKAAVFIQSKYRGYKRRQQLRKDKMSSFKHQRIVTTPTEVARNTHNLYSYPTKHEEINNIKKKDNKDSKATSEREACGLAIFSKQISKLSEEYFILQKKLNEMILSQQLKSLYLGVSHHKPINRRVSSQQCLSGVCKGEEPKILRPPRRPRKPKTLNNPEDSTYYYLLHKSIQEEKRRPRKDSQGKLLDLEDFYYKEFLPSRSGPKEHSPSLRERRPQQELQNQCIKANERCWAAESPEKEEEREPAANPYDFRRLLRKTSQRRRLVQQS

Compound | remaining binding at 1 µM [1] [%] | remaining binding at 1 µM [2] [%] | remaining binding at 1 µM [3] [%] | remaining binding at 1 µM [4] [%] | remaining binding at 1 µM ([5]; JAK1 (JH1domain-catalytic)) [%] | remaining binding at 1 µM ([5]; JAK1 (JH2domain-pseudokinase)) [%] | remaining binding at 1 µM [6] [%] | remaining binding at 1 µM [7] [%] | remaining binding at 1 µM [8] [%] | remaining binding at 1 µM [9] [%]
Cc1ccc(C(=O)Nc2ccc(CN3CCN(C)CC3)c(C(F)(F)F)c2)cc1C#Cc1cnc2c(Nc3cnn(C)c3)cccn12 [Example 1, 4-methyl-3-((8-((1-methyl-1H-pyrazol-4-yl)amino)imidazo[1,2-a]pyridin-3-yl)ethynyl)-N-(4-((4-methylpiperazin-1-yl)methyl)-3-(trifluoromethyl)phenyl)benzamide] | 14 | 25 | 66 | 93 | 17 | 70 | 0 | 67 | 0 | 73
Cc1cn(-c2cc(NC(=O)c3ccc(C)c(C#Cc4cnc5c(Nc6cnn(C)c6)cccn45)c3)cc(C(F)(F)F)c2)cn1 [Example 12, 4-methyl-N-(3-(4-methyl-1H-imidazol-1-yl)-5-(trifluoromethyl)phenyl)-3-((8-((1-methyl-1H-pyrazol-4-yl)amino)imidazo[1,2-a]pyridin-3-yl)ethynyl)benzamide] | 88 | 66 | 84 | 100 | 78 | 44 | 69 | 76 | 32 | 99
Cc1ccc(NC(=O)C2(C(=O)Nc3ccc(F)cc3)CC2)cc1C#Cc1cnc2c(Nc3cnn(C(C)C)c3)cccn12 [Example 78] | 100 | 100 | 97 | 99 | 92 | 100 | 97 | 85 | 100 | 89
